The test system of the assay is human pancreatic cancer cells (MIA-Paca-2). As to the kind of experiment: Cell growth inhibitory effect, alamarBlue. In kind it is cell-based. The conditions noted are these: MIA-Paca-2, cultured for 3 days. As to the method: Each of the test compounds (DMSO solutions in various concentrations) was added to 100 μL of a culture solution containing human pancreatic cancer cells (MIA-Paca-2) (cell count: about 5×10^3 cells) and cultured for 3 days. The cell growth inhibitory effect was investigated by fluorescence color development using alamarBlue reagent. Each of their IC50 values was determined.
(In general: The colour change of resazurin is a common sign of viable cells or microbes.)

This note sets out measurements from patent US20200123190A1.

The term IC50 denotes the concentration that inhibits the measured activity by half. The low end stands for greater potency in that assay, the high end for weaker potency in that assay.

`Nc1ccn([C@@H]2O[C@H](CO)[C@@H](O)C2(F)F)c(=O)n1` [Gemcitabine, 2′-Deoxy-2′,2′-difluorocytidine, reference compound]: the IC50 (Homo sapiens, 72 h) stood at 7.4 µM.

For “O,O′— Di (4-chloro)benzyl 2′-deoxy-2′,2′-difluoro-5′-cytidylate [Compound (2)]”, it took 18 µM to reach half-maximal inhibition (IC50).

Turning to “O,O′— Di(4-bromo)benzyl 2′-deoxy-2′,2′-difluoro-5′-cytidylate [Compound (3)]”, the IC50 was 21.8 µM.

“O,′-Di (4-fluoro)benzyl 2′-deoxy-2′,2′-difluoro-5′-cytidylate [Compound (1)]” showed an IC50 of 9.8 µM.
